Measured values published in US20120034613A1, “Apparatus and Method for Testing Relationships Between Gene Expression and Physical Appearance of Skin” (NSE Products, Inc., priority 2010, published 2012).

System: EpidermFT™ Skin Model (EFT-400) full thickness skin cultures
Test: Affymetrix GeneChip HG U133 Plus 2.0 microarray global gene expression, agent-exposed vs untreated skin cultures
Assay type: cell-based, human
[1] = Salicin 0.5% vs Untreated Control, 24 hr, direction down
[2] = probe 201286_at, Table 3 skin structure
[3] = probe 203535_at, Table 3 skin structure
[4] = probe 204422_s_at, Table 3 skin structure

OCc1ccccc1O[C@@H]1O[C@H](CO)[C@@H](O)[C@H](O)[C@H]1O [Salicin, 2-(Hydroxymethyl)phenyl β-D-glucospyranoside] was tested, and the “Fold change WNK1 (211993_at)” value [1] was 2.037, the “Fold change ZBTB1 (1557036_at)” value [1] was 2.05 and the “Fold change ZDHHC21 (241946_at)” value [1] was 2.09. The “Fold change ZFYVE21 (219929_s_at)” value [1] was 2.001, the “Fold change ZHX1 (223213_s_at)” value [1] was 2.071 and the “Fold change ZHX1 (223214_s_at)” value [1] was 2.15. The “Fold change ZNF85 (1554445_at)” value [1] was 2.143, the “Fold change ZNF561 (235200_at)” value [1] was 2.135 and the “Fold change ZNF589 (219968_at)” value [1] was 2.059. For the same compound, the “Fold change ZNF823 (229732_at)” value [1] was 2.045, the “Direction DSP” value (probe 200606_at, 0.5%, 24 hr) was “down” and the “Fold change DSP” value (probe 200606_at, 0.5%, 24 hr) was 2.848. The “Direction HSPA1A /// HSPA1B” value (probe 200800_s_at, 0.5%, 24 hr) was “up”, the “Fold change HSPA1A /// HSPA1B” value (probe 200800_s_at, 0.5%, 24 hr) was 3.112 and the “Direction SCD” value (probe 200832_s_at, 0.5%, 24 hr) was “down”. The “Fold change SCD” value (probe 200832_s_at, 0.5%, 24 hr) was 3.77, the “Direction ABLIM1” value (probe 200965_s_at, 0.5%, 24 hr) was “down” and the “Fold change ABLIM1” value (probe 200965_s_at, 0.5%, 24 hr) was 11.88. The “Direction TGM2” value (probe 201042_at, 0.5%, 24 hr) was “up”, the “Fold change TGM2” value (probe 201042_at, 0.5%, 24 hr) was 2.351 and the “Direction DUSP1” value (probe 201044_x_at, 0.5%, 24 hr) was “up”. For the same compound, the “Fold change DUSP1” value (probe 201044_x_at, 0.5%, 24 hr) was 3.726, the “Direction TIMP3” value (probe 201150_s_at, 0.5%, 24 hr) was “up” and the “Fold change TIMP3” value (probe 201150_s_at, 0.5%, 24 hr) was 2.058. The “Direction SDC1” value [2] was “down”, the “Fold change SDC1” value [2] was 4.63 and the “Direction SDC1” value (probe 201287_s_at, 0.5%, 24 hr) was “down”. For the same compound, the “Fold change SDC1” value (probe 201287_s_at, 0.5%, 24 hr) was 3.32, the “Direction CLDN4” value (probe 201428_at, 0.5%, 24 hr) was “down” and the “Fold change CLDN4” value (probe 201428_at, 0.5%, 24 hr) was 3.454. The “Direction ITGA3” value (probe 201474_s_at, 0.5%, 24 hr) was “down”, the “Fold change ITGA3” value (probe 201474_s_at, 0.5%, 24 hr) was 2.052 and the “Direction NFKBIA” value (probe 201502_s_at, 0.5%, 24 hr) was “up”. The “Fold change NFKBIA” value (probe 201502_s_at, 0.5%, 24 hr) was 3.064, the “Direction ITGA6” value (probe 201656_at, 0.5%, 24 hr) was “down” and the “Fold change ITGA6” value (probe 201656_at, 0.5%, 24 hr) was 4.442. The “Direction KRT5” value (probe 201820_at, 0.5%, 24 hr) was “down”, the “Fold change KRT5” value (probe 201820_at, 0.5%, 24 hr) was 2.154 and the “Direction EPCAM” value (probe 201839_s_at, 0.5%, 24 hr) was “down”. For the same compound, the “Fold change EPCAM” value (probe 201839_s_at, 0.5%, 24 hr) was 2.093, the “Direction PLAT” value (probe 201860_s_at, 0.5%, 24 hr) was “up” and the “Fold change PLAT” value (probe 201860_s_at, 0.5%, 24 hr) was 4.229. The “Direction ALDH3A2” value (probe 202053_s_at, 0.5%, 24 hr) was “down”, the “Fold change ALDH3A2” value (probe 202053_s_at, 0.5%, 24 hr) was 4.399 and the “Direction TUBB3” value (probe 202154_x_at, 0.5%, 24 hr) was “down”. The “Fold change TUBB3” value (probe 202154_x_at, 0.5%, 24 hr) was 2.967, the “Direction NR4A1” value (probe 202340_x_at, 0.5%, 24 hr) was “up” and the “Fold change NR4A1” value (probe 202340_x_at, 0.5%, 24 hr) was 2.338. For the same compound, the “Direction IFI27” value (probe 202411_at, 0.5%, 24 hr) was “down”, the “Fold change IFI27” value (probe 202411_at, 0.5%, 24 hr) was 4.671 and the “Direction ACSL4” value (probe 202422_s_at, 0.5%, 24 hr) was “up”. For the same compound, the “Fold change ACSL4” value (probe 202422_s_at, 0.5%, 24 hr) was 3.786, the “Direction HSPA13” value (probe 202558_s_at, 0.5%, 24 hr) was “up” and the “Fold change HSPA13” value (probe 202558_s_at, 0.5%, 24 hr) was 3.13. For the same compound, the “Direction EPS8” value (probe 202609_at, 0.5%, 24 hr) was “up”, the “Fold change EPS8” value (probe 202609_at, 0.5%, 24 hr) was 2.334 and the “Direction TNFAIP3” value (probe 202643_s_at, 0.5%, 24 hr) was “up”. The “Fold change TNFAIP3” value (probe 202643_s_at, 0.5%, 24 hr) was 6.915, the “Direction TNFSF10” value (probe 202687_s_at, 0.5%, 24 hr) was “down” and the “Fold change TNFSF10” value (probe 202687_s_at, 0.5%, 24 hr) was 20.31. The “Direction FOXO1” value (probe 202724_s_at, 0.5%, 24 hr) was “up”, the “Fold change FOXO1” value (probe 202724_s_at, 0.5%, 24 hr) was 2.098 and the “Direction SPINT1” value (probe 202826_at, 0.5%, 24 hr) was “down”. For the same compound, the “Fold change SPINT1” value (probe 202826_at, 0.5%, 24 hr) was 4.585, the “Direction DNAJB9” value (probe 202843_at, 0.5%, 24 hr) was “up” and the “Fold change DNAJB9” value (probe 202843_at, 0.5%, 24 hr) was 3.56. For the same compound, the “Direction FBN2” value (probe 203184_at, 0.5%, 24 hr) was “up”, the “Fold change FBN2” value (probe 203184_at, 0.5%, 24 hr) was 2.028 and the “Direction S100A9” value [3] was “down”. For the same compound, the “Fold change S100A9” value [3] was 2.59, the “Direction LPL” value (probe 203549_s_at, 0.5%, 24 hr) was “up” and the “Fold change LPL” value (probe 203549_s_at, 0.5%, 24 hr) was 4.075. For the same compound, the “Direction PDE4B” value (probe 203708_at, 0.5%, 24 hr) was “up”, the “Fold change PDE4B” value (probe 203708_at, 0.5%, 24 hr) was 5.314 and the “Direction AQP3” value (probe 203747_at, 0.5%, 24 hr) was “down”. For the same compound, the “Fold change AQP3” value (probe 203747_at, 0.5%, 24 hr) was 2.032, the “Direction DNAJB4” value (probe 203810_at, 0.5%, 24 hr) was “up” and the “Fold change DNAJB4” value (probe 203810_at, 0.5%, 24 hr) was 2.053. For the same compound, the “Direction MAP3K5” value (probe 203836_s_at, 0.5%, 24 hr) was “up”, the “Fold change MAP3K5” value (probe 203836_s_at, 0.5%, 24 hr) was 2.356 and the “Direction THBD” value (probe 203887_s_at, 0.5%, 24 hr) was “down”. The “Fold change THBD” value (probe 203887_s_at, 0.5%, 24 hr) was 3.137, the “Direction PLCB4” value (probe 203896_s_at, 0.5%, 24 hr) was “up” and the “Fold change PLCB4” value (probe 203896_s_at, 0.5%, 24 hr) was 4.016. For the same compound, the “Direction FABP4” value (probe 203980_at, 0.5%, 24 hr) was “up”, the “Fold change FABP4” value (probe 203980_at, 0.5%, 24 hr) was 2.251 and the “Direction LPAR1” value (probe 204038_s_at, 0.5%, 24 hr) was “up”. The “Fold change LPAR1” value (probe 204038_s_at, 0.5%, 24 hr) was 2.732, the “Direction FILIP1L” value (probe 204135_at, 0.5%, 24 hr) was “down” and the “Fold change FILIP1L” value (probe 204135_at, 0.5%, 24 hr) was 2.996. The “Direction TUBB2A” value (probe 204141_at, 0.5%, 24 hr) was “down”, the “Fold change TUBB2A” value (probe 204141_at, 0.5%, 24 hr) was 2.739 and the “Direction ELOVL6” value (probe 204256_at, 0.5%, 24 hr) was “down”. For the same compound, the “Fold change ELOVL6” value (probe 204256_at, 0.5%, 24 hr) was 3.121, the “Direction EDNRB” value (probe 204273_at, 0.5%, 24 hr) was “up” and the “Fold change EDNRB” value (probe 204273_at, 0.5%, 24 hr) was 3.916. The “Direction FGFR3” value (probe 204379_s_at, 0.5%, 24 hr) was “down”, the “Fold change FGFR3” value (probe 204379_s_at, 0.5%, 24 hr) was 5.288 and the “Direction FGF2” value (probe 204421_s_at, 0.5%, 24 hr) was “up”. For the same compound, the “Fold change FGF2” value (probe 204421_s_at, 0.5%, 24 hr) was 3.845, the “Direction FGF2” value [4] was “up” and the “Fold change FGF2” value [4] was 3.455. The “Direction COL17A1” value (probe 204636_at, 0.5%, 24 hr) was “down”, the “Fold change COL17A1” value (probe 204636_at, 0.5%, 24 hr) was 3.576 and the “Direction KLK6” value (probe 204733_at, 0.5%, 24 hr) was “down”. For the same compound, the “Fold change KLK6” value (probe 204733_at, 0.5%, 24 hr) was 16.28, the “Direction KRT15” value (probe 204734_at, 0.5%, 24 hr) was “down” and the “Fold change KRT15” value (probe 204734_at, 0.5%, 24 hr) was 3.6. The “Direction SMAD7” value (probe 204790_at, 0.5%, 24 hr) was “up”, the “Fold change SMAD7” value (probe 204790_at, 0.5%, 24 hr) was 2.151 and the “Direction PTGER4” value (probe 204897_at, 0.5%, 24 hr) was “up”. The “Fold change PTGER4” value (probe 204897_at, 0.5%, 24 hr) was 2.525, the “Direction INFRSF11B” value (probe 204932_at, 0.5%, 24 hr) was “up” and the “Fold change INFRSF11B” value (probe 204932_at, 0.5%, 24 hr) was 6.287.
